Reference: PubChem BioAssay AID2060328 (Molecular Pharmacology Branch, DTP, NCI, 2025)
Where “and” joins values, the source holds several entries; their conditions need not be identical. Equal entries are not always repeated.

Tested on: MDA-MB-231 multicell spheroids, viability (%T/C)
Assay: Anticancer human tumor MDA-MB-231 cell line growth inhibition [IpAb];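 note: viability read after seven days of drug exposure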;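 for viability, T/C: 100% = DMSO vehicle control viability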
Conditions: for viability, T/C: stronger effect = lower value; active = viability on the fitted dose curve at most 10% of control; inactive = the rest
In short: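 Combinations with ipatasertib or abemaciclib were tested on tumour spheroids holding HUVEC (25%) and MSC (15%) alongside 60% malignant cells. Top concentration was at or near clinical Cmax (10 microM if undefined), descending in half-log steps.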

[1] = curve of first compound, second compound 0.01 µM
[2] = curve of first compound, second compound 0.0316 µM
[3] = curve of first compound, second compound 0.1 µM
[4] = curve of first compound, second compound 0.316 µM
[5] = curve of first compound, second compound 1 µM
[6] = second compound 0.01 µM, first compound 0.0316 µM
[7] = second compound 0.01 µM, first compound 0.1 µM
[8] = second compound 0.01 µM, first compound 0.316 µM
[9] = second compound 0.01 µM, first compound 1 µM
[10] = second compound 0.01 µM, first compound 3.16 µM
[11] = second compound 0.01 µM, first compound 10 µM
[12] = second compound 0.0316 µM, first compound 0.0316 µM
[13] = second compound 0.0316 µM, first compound 0.1 µM
[14] = second compound 0.0316 µM, first compound 0.316 µM
[15] = second compound 0.0316 µM, first compound 1 µM
[16] = second compound 0.0316 µM, first compound 3.16 µM
[17] = second compound 0.0316 µM, first compound 10 µM
[18] = second compound 0.1 µM, first compound 0.0316 µM
[19] = second compound 0.1 µM, first compound 0.1 µM
[20] = second compound 0.1 µM, first compound 0.316 µM
[21] = second compound 0.1 µM, first compound 1 µM
[22] = second compound 0.1 µM, first compound 3.16 µM
[23] = second compound 0.1 µM, first compound 10 µM
[24] = second compound 0.316 µM, first compound 0.0316 µM
[25] = second compound 0.316 µM, first compound 0.1 µM
[26] = second compound 0.316 µM, first compound 0.316 µM
[27] = second compound 0.316 µM, first compound 1 µM
[28] = second compound 0.316 µM, first compound 3.16 µM
[29] = second compound 0.316 µM, first compound 10 µM
[30] = second compound 1 µM, first compound 0.0316 µM
[31] = second compound 1 µM, first compound 0.1 µM
[32] = second compound 1 µM, first compound 0.316 µM
[33] = second compound 1 µM, first compound 1 µM
[34] = second compound 1 µM, first compound 3.16 µM
[35] = second compound 1 µM, first compound 10 µM

Cn1nccc1Nc1nccc(-c2ccn(C(CO)c3ccc(Cl)c(F)c3)c(=O)c2)n1 (configuration not stated) + CCN1CCN(Cc2ccc(Nc3ncc(F)c(-c4cc(F)c5nc(C)n(C(C)C)c5c4)n3)nc2)CC1
inactive: viability, T/C [6] 58% | viability, T/C [7] 50.2% | viability, T/C [8] 41.8% | viability, T/C [9] 37% | viability, T/C [10] 29.8% | viability, T/C [11] 21.9% | viability, T/C [12] 45.3% | viability, T/C [13] 42.2% | viability, T/C [14] 35.6% | viability, T/C [15] 28.4% | viability, T/C [16] 24.1% | viability, T/C [17] 23.9% | viability, T/C [18] 34.8% | viability, T/C [19] 34.1% | viability, T/C [20] 27.6% | viability, T/C [21] 24% | viability, T/C [22] 19.9% | viability, T/C [23] 19.2% | viability, T/C [24] 29.6% | viability, T/C [25] 27.2% | viability, T/C [26] 20.7% | viability, T/C [27] 20.6% | viability, T/C [28] 20.2% | viability, T/C [29] 18.8% | viability, T/C [30] 30.5% | viability, T/C [31] 25.7% | viability, T/C [32] 19.3% | viability, T/C [33] 20.7% | viability, T/C [34] 18.6% | viability, T/C [35] 18.7%
106 nM: IC50 [1]
< 31.6 nM: IC50 [2] | IC50 [3] | IC50 [4] | IC50 [5]

CC1(C)CCC(CN2CCN(c3ccc(C(=O)NS(=O)(=O)c4ccc(NCC5CCOCC5)c([N+](=O)[O-])c4)c(Oc4cnc5[nH]ccc5c4)c3)CC2)=C(c2ccc(Cl)cc2)C1 + CCN1CCN(Cc2ccc(Nc3ncc(F)c(-c4cc(F)c5nc(C)n(C(C)C)c5c4)n3)nc2)CC1
5150 nM: IC50 [2]
active: viability, T/C [23] 6.54% | viability, T/C [29] 7.02% | viability, T/C [35] 7.14%
5850 nM: IC50 [1]
< 31.6 nM: IC50 [4]
3220 nM: IC50 [5]
inactive: viability, T/C [6] 102% | viability, T/C [7] 97.5% | viability, T/C [8] 100% | viability, T/C [9] 101% | viability, T/C [10] 94.8% | viability, T/C [11] 11% | viability, T/C [12] 86.7% | viability, T/C [13] 81.8% | viability, T/C [14] 82.2% | viability, T/C [15] 83.2% | viability, T/C [16] 78.6% | viability, T/C [17] 11.2% | viability, T/C [18] 64.2% | viability, T/C [19] 66.6% | viability, T/C [20] 63.9% | viability, T/C [21] 65% | viability, T/C [22] 66.4% | viability, T/C [24] 50.5% | viability, T/C [25] 50.4% | viability, T/C [26] 48.2% | viability, T/C [27] 47.9% | viability, T/C [28] 44.8% | viability, T/C [30] 48.2% | viability, T/C [31] 52.7% | viability, T/C [32] 52.9% | viability, T/C [33] 53.4% | viability, T/C [34] 50.7%
4260 nM: IC50 [3]

CC(C)(C)c1cnc(CSc2cnc(NC(=O)C3CCNCC3)s2)o1
active: viability, T/C (compound 0.3 µM) 1.96% and 1.34% | viability, T/C (compound 0.949 µM) 1.07% and 1.11% | viability, T/C (compound 3 µM) 0.92% and 1.78%
184 nM and 175 nM: IC50 (curve of compound)
inactive: viability, T/C (compound 0.00949 µM) 109% | viability, T/C (compound 0.03 µM) 118% and 115% | viability, T/C (compound 0.0949 µM) 120% and 105%

CC(C)n1nc(-c2ccc3oc(N)nc3c2)c2c(N)ncnc21 + CC(C)NCC(C(=O)N1CCN(c2ncnc3c2C(C)CC3O)CC1)c1ccc(Cl)cc1
15.1 nM: IC50 [3]
inactive: viability, T/C (second compound 0.1 µM, first compound 0.000316 µM) 90.9% | viability, T/C (second compound 0.1 µM, first compound 0.001 µM) 84% | viability, T/C (second compound 0.1 µM, first compound 0.00316 µM) 68.6% | viability, T/C (second compound 0.1 µM, first compound 0.01 µM) 54.5% | viability, T/C [18] 42.5% | viability, T/C [19] 40.5% | viability, T/C (second compound 0.316 µM, first compound 0.000316 µM) 86.8% | viability, T/C (second compound 0.316 µM, first compound 0.001 µM) 69.8% | viability, T/C (second compound 0.316 µM, first compound 0.00316 µM) 56.4% | viability, T/C (second compound 0.316 µM, first compound 0.01 µM) 43.8% | viability, T/C [24] 38.6% | viability, T/C [25] 35.4% | viability, T/C (second compound 1 µM, first compound 0.000316 µM) 67.4% | viability, T/C (second compound 1 µM, first compound 0.001 µM) 59% | viability, T/C (second compound 1 µM, first compound 0.00316 µM) 46.1% | viability, T/C (second compound 1 µM, first compound 0.01 µM) 36.5% | viability, T/C [30] 31.7% | viability, T/C [31] 29.8% | viability, T/C (second compound 3.16 µM, first compound 0.000316 µM) 53.3% | viability, T/C (second compound 3.16 µM, first compound 0.001 µM) 47% | viability, T/C (second compound 3.16 µM, first compound 0.00316 µM) 36.9% | viability, T/C (second compound 3.16 µM, first compound 0.01 µM) 28.3% | viability, T/C (second compound 3.16 µM, first compound 0.0316 µM) 26.1% | viability, T/C (second compound 3.16 µM, first compound 0.1 µM) 23.3% | viability, T/C (second compound 10 µM, first compound 0.000316 µM) 38.3% | viability, T/C (second compound 10 µM, first compound 0.001 µM) 34.2% | viability, T/C (second compound 10 µM, first compound 0.00316 µM) 27.1% | viability, T/C (second compound 10 µM, first compound 0.01 µM) 18.1% | viability, T/C (second compound 10 µM, first compound 0.0316 µM) 15.2% | viability, T/C (second compound 10 µM, first compound 0.1 µM) 14.6%
2.25 nM: IC50 [5]
5.64 nM: IC50 [4]
0.58 nM: IC50 (curve of first compound, second compound 3.16 µM)
< 0.316 nM: IC50 (curve of first compound, second compound 10 µM)
